# Patent US4851385A, “LHRH antagonist analogs having low histamine-release activity” (Indiana University Foundation, priority 1987, dated 1989)
# Where a SMILES comes first, the peptide text is derived from it. [ ]: non-standard residue; d: D form. dPhe(4-Cl) = N[C@H](Cc1ccc(Cl)cc1)C(=O)O; d2Nal = N[C@H](Cc1ccc2ccccc2c1)C(=O)O
# Assays:
# histamine release = details: cited from earlier work
# rat mast cells [1] = details: mast cell supernatants assayed concomitantly for lactic dehydrogenase
# From the text: The ED50 values of Table I (mean effective dose from dose response curves), are expressed in μg/ml. […] For routine testing, mast cells were not purified.
# rat = assay: Standard antiovulatory assay (Corbin and Beattie); type: in vivo
# Protocol: Antiovulatory activity was determined by standard antiovulatory assays conducted by the method described by Corbin and Beattie, Endocrine Research Communications 2 1 (1975) and results are given in Table I.
# rat mast cells [2] = assay: In vitro histamine releasing activity assay (rat peritoneal mast cell suspension, fluorometric histamine assay); type: cell-based; details: mean effective dose from dose response curves, 15 min at 37° C., duplicate or triplicate, cells from at least three rats
# Protocol: The in vitro histamine release activity of the analogs was assayed by the method described below and the results are given in Table I.
# A suspension of rat mast cells was added to increasing concentrations of peptide and the mixture was incubated for a few minutes followed by centrifugation to collect the histamine in the supernatant. A PIPES (piperazine-N,N'-bis[2-ethanesulfonic acid]) medium buffered at pH 7.4 containing NaCl119 mM, KCl5 mM, PIPES 25mM, NaOH 40 mM, glucose 5.6 mM, CaCl2 1 mM and 0.1% bovine serum albumin was used. This was designated as PIPES AC. Peptides were dissolved in double distilled H2 O at a concentration of 2 mg ml and stored at -20° C. They were thawed just prior to testing, duluted in PIPES AC and prewarmed for 5 min. at 37° C. Peptides studied were stable to heating at 56° C. for 2 hr., and to freezing and thawing.
# Peritoneal cells were collected from male Sprague-Dawley rats weighing 200 to 250 gm and purchased from Harlan (Madison, Wis.). After euthanasia by CO2, the peritoneal cavity was washed with 50 ml PIPES AC medium containing 20 units of heparin. Following centrifugation at 200×g for 8 min. at 4° C., cells were washed again and finally resuspended to a concentration of 8 to 24×10^5 total leukocytes/ml in PIPES AC. This suspension contained approximately 5-10% mast cells. […]
compound,measurement,setting,value
"CC(=O)N[C@H](Cc1ccc2ccccc2c1)C(=O)N[C@H](Cc1ccc(Cl)cc1)C(=O)N[C@H](Cc1c[nH]c2ccccc12)C(=O)N[C@@H](CO)C(=O)N[C@@H](Cc1ccc(O)cc1)C(=O)N[C@H](CCCNC(=N)N)C(=O)N[C@@H](CC(C)C)C(=O)N[C@@H](CCCNC(=N)N)C(=O)N1CCC[C@H]1C(=O)N[C@H](C)C(N)=O [Compound 1, [N-Ac-D-Nal(2)^1, D-p-Cl-Phe^2, D-Trp^3, D-Arg^6, D-Ala^10] LHRH] (Ac-[d2Nal][dPhe(4-Cl)][dW]SY[dR]LRP[dA]-NH2)",histamine releasing activity (in words),histamine release; Karten and Rivier 1986,potent histamine releasing anlog
"CC(C)C[C@H](NC(=O)CNC(=O)[C@H](Cc1ccc(O)cc1)NC(=O)[C@H](CO)NC(=O)[C@H](Cc1c[nH]c2ccccc12)NC(=O)[C@H](Cc1cnc[nH]1)NC(=O)[C@@H]1CCC(=O)N1)C(=O)N[C@@H](CCCNC(=N)N)C(=O)N1CCC[C@H]1C(=O)NCC(N)=O [LHRH, luteinizing hormone-releasing hormone]",cell toxicity by release of lactic dehydrogenase,rat mast cells [1],no evidence seen of cell toxicity
"[Ac-2-D-Nal^1, α-Me-4-C1-D-Phe^2, D-Trp^3, Arg^5, D-Tyr^6, D-Ala^10 ] LHRH",times less potent in histamine releasing activity than the synthetic D-Arg6 antagonists,histamine release; Roeske et al. 1985,20-40 times
"[Ac-D-2-Nal^1, D-4-C1-Phe^2, D-Trp^3, D-N^ε -Heptyl Lys, Nε-Heptyl Lys^8, D-Ala^10 ]LHRH",antiovulatory activity (in words),rat; N-alkylation of Lys 6 and 8 with a 7-carbon moiety,lowers antiovulatory activity markedly
"[N--Ac--D-Nal(2)^1,D-C--α-Me--pCl--Phe^2,D-Pal(3)^3,D-Arg^6,hArg(Et2)^8,D-Ala^10 ]LHRH [Compound 2]","Ovulation Inhibition, Corn Oil, ED100","rat; corn oil vehicle, ≥ = significant reduction in rats ovulating but ED100 not achieved at the dose, ≥≥ = inactive at the dose tested",1.0 ug/rat
same,In Vitro Histamine Release ED50,rat mast cells [2],4.9 µg/mL
"[N-Ac-D-Nal(2)^1, D-pC1-Phe^2, D-Pal^3, Arg^5, D-Tyr^6, D-Ala^10 ]LHRH",mean effective dose for histamine release (known analog),histamine release; from Roeske et al. 1985,about 4.0 ug/ml
